Results taken from patent publication US9486455B2, “Compounds for modulating TRPV3 function” (HYDRA BIOSCIENCES, INC., priority 2007, dated 2016).
pIC50: −log10 of the molar value. Like-named read-outs stand apart in the source and are kept apart here.

What was measured:
human (h) TRPV3 = target: T1, human (h) TRPV3 (Homo sapiens, UniProt Q8NET8); experiment: Whole-cell patch clamp, human TRPV3-mediated currents; assay type: cell-based
T1 construct: expressed in transfected cells; host or cells: HEK293/TREx, tetracycline-induced
T1 sequence (Q8NET8 1-790): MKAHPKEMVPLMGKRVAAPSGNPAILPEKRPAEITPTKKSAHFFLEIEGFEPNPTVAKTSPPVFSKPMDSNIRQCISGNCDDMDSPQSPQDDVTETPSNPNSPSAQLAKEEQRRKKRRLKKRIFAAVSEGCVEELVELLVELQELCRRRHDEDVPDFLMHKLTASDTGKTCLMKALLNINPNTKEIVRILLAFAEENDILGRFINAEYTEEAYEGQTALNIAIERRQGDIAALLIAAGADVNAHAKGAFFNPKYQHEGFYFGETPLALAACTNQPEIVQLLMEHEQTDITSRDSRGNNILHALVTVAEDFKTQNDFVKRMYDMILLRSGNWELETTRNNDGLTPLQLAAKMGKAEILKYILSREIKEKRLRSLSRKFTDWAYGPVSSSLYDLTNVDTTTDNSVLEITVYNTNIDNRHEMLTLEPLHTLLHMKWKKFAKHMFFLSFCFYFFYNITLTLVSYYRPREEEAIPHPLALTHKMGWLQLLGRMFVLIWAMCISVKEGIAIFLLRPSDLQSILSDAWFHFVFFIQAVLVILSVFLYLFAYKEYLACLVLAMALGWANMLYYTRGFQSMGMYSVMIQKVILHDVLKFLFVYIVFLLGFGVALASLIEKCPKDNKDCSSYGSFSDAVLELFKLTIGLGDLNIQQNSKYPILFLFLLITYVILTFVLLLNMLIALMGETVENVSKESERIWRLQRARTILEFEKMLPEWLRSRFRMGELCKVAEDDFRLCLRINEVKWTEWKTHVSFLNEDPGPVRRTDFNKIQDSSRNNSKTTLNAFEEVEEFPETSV
Excerpt: (§1) Whole-cell patch clamp experiments permit the detection of currents through the TRPV3 channel in the cell line described above. A glass electrode is brought into contact with a single cell and the membrane is then ruptured, permitting control of the voltage of the cell membrane and measurement of currents flowing across the membrane using the amplifier attached to the electrode. A perfusion system permits control of the extracellular solution, including the addition of blockers and activators of the current. The current can be activated by heating this solution to 28° C. or warmer or by addition of 20 μM 2-APB to the solution.
(§2) TRPV3 cells were induced 20-48 hours, removed from growth plates, and replated at low density (to attain good single-cell physical separation) on glass coverslips for measurement. In some cases, cells were grown in low density overnight on glass coverslips. Patch clamp recordings were made in the whole-cell mode with a holding potential of −40 mV. Every 5 seconds, a voltage ramp was applied from −120 to +100 mV, 400 ms in duration. Currents elicited were quantified at −80 mV and +80 mV. The internal solution consisted of 140 mM cesium aspartate, 10 mM EGTA, 2.27 mM MgCl2, 1.91 mM CaCl2 and 10 mM HEPES, pH to 7.2 with KOH; with 50 nM calculated free Ca^2+. External solution was Ringer's solution described above. Upon addition of 2-APB or upon heating of the extracellular solution as described above, TRPV3 current was induced only in TRPV3-expressing cells and not in parental HEK293 TREx cells. […] Removal of the stimulus caused most of the current to go away, and inhibitor addition could still inhibit this current. […]
(§3) P1 refers to the Phase 1 current for human (h) and rat (r) TRPV3, and P2 refers to the Phase 2 current for human (h) and rat (r) TRPV3.

rat (r) TRPV3 = target: T2, rat (r) TRPV3 (Rattus norvegicus, UniProt Q4QYD9); experiment: Whole-cell patch clamp, rat TRPV3-mediated currents; assay type: cell-based
T2 construct: expressed in transfected cells
T2 sequence (Q4QYD9 1-791): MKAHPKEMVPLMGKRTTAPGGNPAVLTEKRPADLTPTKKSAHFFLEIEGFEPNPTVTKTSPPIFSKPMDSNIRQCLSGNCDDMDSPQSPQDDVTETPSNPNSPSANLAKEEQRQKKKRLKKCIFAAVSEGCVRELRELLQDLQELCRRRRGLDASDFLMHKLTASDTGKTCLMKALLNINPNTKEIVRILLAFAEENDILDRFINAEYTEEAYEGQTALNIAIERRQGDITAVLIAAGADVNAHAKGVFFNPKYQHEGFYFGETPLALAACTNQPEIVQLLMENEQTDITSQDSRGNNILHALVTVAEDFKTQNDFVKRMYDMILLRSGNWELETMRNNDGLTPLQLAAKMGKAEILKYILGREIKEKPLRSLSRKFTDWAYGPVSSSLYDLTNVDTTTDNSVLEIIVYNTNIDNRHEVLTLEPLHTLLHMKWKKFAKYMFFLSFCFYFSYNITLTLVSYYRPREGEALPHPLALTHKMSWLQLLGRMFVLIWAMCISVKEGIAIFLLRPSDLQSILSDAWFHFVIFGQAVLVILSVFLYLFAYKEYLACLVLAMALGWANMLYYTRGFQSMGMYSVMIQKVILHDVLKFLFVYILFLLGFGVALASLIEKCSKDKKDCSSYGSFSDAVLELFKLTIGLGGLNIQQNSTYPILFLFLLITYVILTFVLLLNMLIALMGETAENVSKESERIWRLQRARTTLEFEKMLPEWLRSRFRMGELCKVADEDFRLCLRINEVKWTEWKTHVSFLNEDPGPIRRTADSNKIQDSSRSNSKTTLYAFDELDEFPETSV
Excerpt: as §1, §2, §3

[1] = Phase 1 inward current, read-out: P1 In (h)
[2] = Phase 2 inward current, read-out: P2 In (h)
[3] = Phase 1 outward current, read-out: P1 Out (h)
[4] = Phase 2 outward current, read-out: P2 Out (h)
[5] = Phase 1 inward current, read-out: P1 In (r)
[6] = Phase 1 outward current, read-out: P1 Out (r)
[7] = Phase 2 inward current, read-out: P2 In (r)
[8] = Phase 2 outward current, read-out: P2 Out (r)
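Also: compounds tested at concentrations up to 30 µM.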

Compound | pIC50 (human (h) TRPV3; [1]) | pIC50 (human (h) TRPV3; [2]) | pIC50 (human (h) TRPV3; [3]) | pIC50 (human (h) TRPV3; [4]) | pIC50 (rat (r) TRPV3; [5]) | pIC50 (rat (r) TRPV3; [6]) | pIC50 (rat (r) TRPV3; [7]) | pIC50 (rat (r) TRPV3; [8])
COc1cccc(/C=C/c2nc3ccccc3c(=O)n2-c2c(C)cc(OCCO)cc2C)c1O [Compound 1] | ≥ 6.00 | ≥ 6.00 |  |  |  |  |  | 
COc1cccc(/C=C(\C)c2nc3ccccc3c(=O)n2-c2ccccc2C)c1O [Compound 2] | ≥ 5.30 | ≥ 5.30 |  |  |  |  |  | 
COc1cccc(/C=C/c2nc3ccccc3c(=O)n2-c2c(C)cc(OCCN(C)C)cc2C)c1O [Compound 3] | ≥ 5.00 | ≥ 5.30 |  |  |  |  |  | 
Cc1ccccc1-n1c(-c2ccoc2)nc2ccccc2c1=O [Compound 4] | ≥ 5.00 | ≥ 5.00 |  |  |  |  |  | 
Cc1ccccc1-n1c(/C=C/c2nnn[nH]2)nc2ccccc2c1=O [Compound 5] | < 5.00 | < 5.00 |  |  |  |  |  | 
Cc1cccc(C)c1-n1c(/C=C/c2cccc3cn[nH]c23)nc2cnccc2c1=O [Compound 10] | ≥ 5.00 |  | ≥ 5.00 |  |  |  |  | 
Cc1cccc(C)c1-n1c(/C=C/c2cccc(OC(F)(F)F)c2O)nc2cnccc2c1=O [Compound 12] | ≥ 6.30 | ≥ 6.30 | ≥ 6.30 | ≥ 6.30 | ≥ 6.30 | ≥ 6.30 |  | 
COc1ccccc1-n1c(/C=C/c2cccc(OC)c2O)nc2cnccc2c1=O [Compound 13] | ≥ 5.00 |  | ≥ 5.00 |  |  |  |  | 
COc1cccc(/C=C/c2nc3cnccc3c(=O)n2-c2c(C)cccc2OC)c1O [Compound 14] | ≥ 6.30 | ≥ 6.30 | ≥ 6.30 | ≥ 6.30 | ≥ 6.30 | ≥ 6.30 | ≥ 6.30 | ≥ 6.00
COc1nccc(/C=C/c2nc3cnccc3c(=O)n2-c2c(C)cccc2C)c1O [Compound 15] | ≥ 6.30 | ≥ 6.30 | ≥ 6.30 | ≥ 6.30 | ≥ 6.30 | ≥ 6.30 | ≥ 6.30 | ≥ 6.30
COc1cccc(/C=C/c2nc3cnccc3c(=O)n2-c2c(C)cccc2Cl)c1O [Compound 16] | ≥ 6.30 | ≥ 6.30 | ≥ 6.30 | ≥ 6.30 | ≥ 6.30 | ≥ 6.30 | ≥ 6.30 | ≥ 6.30
COc1cccc(-n2c(/C=C/c3cccc(OC)c3O)nc3cnccc3c2=O)c1C [Compound 17] | ≥ 5.00 | ≥ 5.00 | ≥ 5.00 | ≥ 5.00 |  |  |  | 
CCOc1cccc(/C=C/c2nc3cnccc3c(=O)n2-c2c(F)cccc2F)c1O [Compound 18] | ≥ 6.30 | ≥ 6.30 | ≥ 6.30 | ≥ 5.00 |  |  |  | 
Cc1cccc(C)c1-n1c(/C=C/c2cc(Cl)ccc2O)nc2cnccc2c1=O [Compound 20] | ≥ 5.30 |  | ≥ 5.00 |  |  |  |  | 
Cc1cccc(C)c1-n1c(/C=C/c2cc(OC(F)(F)F)ccc2O)nc2cnccc2c1=O [Compound 21] | ≥ 5.00 |  | ≥ 5.00 |  |  |  |  | 
Cc1cccc(C)c1-n1c(/C=C/c2cc(Cl)cnc2O)nc2cnccc2c1=O [Compound 22] | ≥ 5.00 |  | ≥ 5.00 |  |  |  |  | 

Compound | pIC50 (human (h) TRPV3; [1]) | pIC50 (human (h) TRPV3; [2]) | pIC50 (human (h) TRPV3; [3]) | pIC50 (human (h) TRPV3; [4]) | pIC50 (rat (r) TRPV3; [5]) | pIC50 (rat (r) TRPV3; [6]) | pIC50 (rat (r) TRPV3; [7]) | pIC50 (rat (r) TRPV3; [8])
Cc1ccc(O)c(/C=C/c2nc3cnccc3c(=O)n2-c2c(C)cccc2C)n1 [Compound 23] | ≥ 5.00 |  | ≥ 5.00 |  |  |  |  | 
COc1cccc(/C=C/c2nc3cnccc3c(=O)n2-c2c(C)cccc2C)n1 [Compound 24] | ≥ 5.00 |  | ≥ 5.00 |  |  |  |  | 
COc1cccc(/C=C/c2nc3cnccc3c(=O)n2-c2ccccc2C#N)c1O [Compound 25] | ≥ 5.00 |  | ≥ 5.30 |  |  |  |  | 
COc1cc(/C=C/c2nc3cnccc3c(=O)n2-c2c(C)cccc2C)ccn1 [Compound 26] | ≥ 5.00 |  | ≥ 5.30 |  |  |  |  | 
Cc1cccc(C)c1-n1c(/C=C/c2cnccc2O)nc2cnccc2c1=O [Compound 29] | ≥ 5.00 |  | ≥ 5.00 |  |  |  |  | 
CCOc1cccc(C=Cc2nc3cnccc3c(=O)n2-c2ccccc2C)c1O [Compound 31] | ≥ 6.30 | ≥ 6.30 | ≥ 6.30 | ≥ 6.30 | ≥ 6.30 | ≥ 6.30 |  | 
COc1cccc(/C=C/c2nc3ccccc3c(=O)n2-c2c(C)ccnc2C)c1O [Compound 32] | ≥ 6.30 | ≥ 6.30 | ≥ 6.30 | ≥ 6.30 | ≥ 6.00 | ≥ 6.00 | ≥ 6.30 | ≥ 6.00
COc1cccc(/C=C/c2nc3ccccc3c(=O)n2-c2c(C)cncc2C)c1O [Compound 33] | ≥ 6.30 | ≥ 6.30 | ≥ 6.30 | ≥ 5.30 | ≥ 6.30 | ≥ 6.30 | ≥ 6.30 | ≥ 6.30
COc1ccnc(/C=C/c2nc3ccccc3c(=O)n2-c2c(C)cccc2C)c1O [Compound 39] | ≥ 5.00 | ≥ 5.00 | ≥ 5.00 | ≥ 5.00 |  |  |  | 
CCOc1nccc(/C=C/c2nc3ccccc3c(=O)n2-c2ccccc2C)c1O [Compound 43] | ≥ 6.30 | ≥ 6.30 | ≥ 6.30 | ≥ 6.30 | ≥ 6.30 | ≥ 6.30 | ≥ 6.30 | ≥ 6.30
COc1cccc(NC(=O)Nc2nc3ccccc3c(=O)n2-c2c(C)cccc2C)c1O [Compound 46] | ≥ 5.30 |  | ≥ 5.30 |  |  |  |  | 
COc1cccc(/C=C/c2nc3ccccc3c(=O)n2-c2c(C)cccc2OCCO)c1O [Compound 48] | ≥ 6.30 |  | ≥ 6.00 | ≥ 6.00 |  |  |  | 
Cc1cccc(C)c1-n1c(/C=C/c2cccc(OC(C)C)c2O)nc2ccccc2c1=O [Compound 51] | ≥ 6.30 | ≥ 6.30 | ≥ 6.30 | ≥ 6.30 | ≥ 6.30 | ≥ 6.30 |  | 
COc1ccccc1-n1c(/C=C/c2cccc(OC)c2O)nc2ccccc2c1=O [Compound 52] | ≥ 6.30 | ≥ 6.30 | ≥ 6.30 | ≥ 6.30 |  |  |  | 
COc1cccc(C=Cc2nc3ccccc3c(=O)n2-c2c(C)cccc2C)c1OP(=O)(O)O [Compound 53] | ≥ 6.30 | ≥ 6.30 | ≥ 6.30 | ≥ 6.30 |  |  |  | 
COc1cccc(-n2c(/C=C/c3cccc(OC)c3O)nc3ccccc3c2=O)c1 [Compound 54] | ≥ 6.30 | ≥ 6.30 | ≥ 6.30 | ≥ 6.30 |  |  |  | 
